Experimental data reported in ChEMBL document CHEMBL5096229, “A 1,2,3-Triazole Derivative of Quinazoline Exhibits Antitumor Activity by Tethering RNF168 to SQSTM1/P62” (J Med Chem, 2022).
The source made the active and inactive calls. No cut-off for these calls is given here.

Legend:
A549 = assay: Cytotoxicity against human A549 cells assessed as reduction in cell viability incubated for 72 hrs by MTS assay; assay type: functional, cell-based; details: A549, 72 h
HCT-116 [1] = assay: Cytotoxicity against human HCT-116 cells assessed as reduction in cell viability incubated for 72 hrs by MTS assay; assay type: functional, cell-based; details: HCT-116, 72 h
A-375 = assay: Cytotoxicity against human A-375 cells assessed as reduction in cell viability incubated for 72 hrs by MTS assay; assay type: functional, cell-based; details: A-375, 72 h
HeLa = assay: Cytotoxicity against human HeLa cells assessed as reduction in cell viability incubated for 72 hrs by MTS assay; assay type: functional, cell-based
MCF7 = assay: Cytotoxicity against human MCF7 cells assessed as reduction in cell viability incubated for 72 hrs by MTS assay; assay type: functional, cell-based; details: MCF7, 72 h
MDA-MB-231 = assay: Cytotoxicity against human MDA-MB-231 cells assessed as reduction in cell viability incubated for 72 hrs by MTS assay; assay type: functional, cell-based; details: MDA-MB-231, 72 h
MGC-803 = assay: Cytotoxicity against human MGC-803 cells assessed as reduction in cell viability incubated for 72 hrs by MTS assay; assay type: functional, cell-based; details: MGC-803, 72 h
HCT-116 [2] = assay: Induction of cell cycle arrest in human HCT-116 cells assessed as accumulation at G0/G1 phase at 2 uM after 24 hrs by propidium iodide-staining based flow cytometry (reference value: 58.01 +/- 1.77%); assay type: functional
HCT-116 [3] = assay: Induction of cell cycle arrest in human HCT-116 cells assessed as accumulation at G0/G1 phase at 5 uM after 24 hrs by propidium iodide-staining based flow cytometry (reference value: 58.01 +/- 1.77%); assay type: functional
HCT-116 [4] = assay: Induction of cell cycle arrest in human HCT-116 cells assessed as accumulation at S phase at 2 uM after 24 hrs by propidium iodide-staining based flow cytometry (reference value: 17.17 +/- 0.18%); assay type: functional
HCT-116 [5] = assay: Induction of cell cycle arrest in human HCT-116 cells assessed as accumulation at G2/M phase at 1 uM after 24 hrs by propidium iodide-staining based flow cytometry (reference value: 23.25 +/- 1.38%); assay type: functional
HCT-116 [6] = assay: Induction of cell cycle arrest in human HCT-116 cells assessed as accumulation at G2/M phase at 5 uM after 24 hrs by propidium iodide-staining based flow cytometry (reference value: 23.25 +/- 1.38%); assay type: functional
U2OS = assay: Inhibition of NHEJ-mediated double strand break repair in human U2OS cells pretreated with I-SceI for 36 hrs followed by compound addition and measured after 12 hrs; assay type: functional, cell-based; details: dose 0.625-2.5 µM, DDE = dose-dependent effect
[7] = Half life in BALB/c mouse at 5 mg/kg; assay type: ADME, organism-based; details: in vivo
[8] = Half life in BALB/c mouse at 10 mg/kg; assay type: ADME, organism-based; details: in vivo
[9] = Half life in BALB/c mouse at 20 mg/kg; assay type: ADME, organism-based; details: in vivo
[10] = Cmax in BALB/c mouse at 10 mg/kg; assay type: ADME, organism-based; set-up: dose 10 mg/kg; details: in vivo
[11] = Clearance in BALB/c mouse at 5 mg/kg; assay type: ADME, organism-based; details: in vivo
[12] = Clearance in BALB/c mouse at 10 mg/kg; assay type: ADME, organism-based; details: in vivo
[13] = Metabolic stability in human liver microsomes assessed as half life at 0.5 uM by LC-MS analysis; assay type: ADME, Microsome
[14] = Toxicity in BALB/c mouse assessed as animal death at 100 mg/kg, ip after 7 days; assay type: organism-based; details: in vivo, 168 h, time 7 day
[15] = Toxicity in BALB/c mouse assessed as diarrhea at 100 mg/kg, ip after 7 days; assay type: organism-based; details: in vivo, 168 h, time 7 day
[16] = Toxicity in BALB/c mouse assessed as diarrhea at less than 50 mg/kg, ip after 7 days; assay type: organism-based; details: in vivo, 168 h, time 7 day
[17] = Toxicity in BALB/c mouse assessed as maximum tolerable dose; details: in vivo
[18] = Toxicity in BALB/c nude mouse assessed as diarrhea 25 mg/kg, ip after 7 days; assay type: organism-based; details: in vivo, 168 h, time 7 day
[19] = Toxicity in BALB/c mouse assessed as diarrhea 50 mg/kg, ip after 7 days; assay type: organism-based; details: in vivo, 168 h, time 7 day
HCT-116 [20] = assay: Antitumor activity against human HCT-116 cells xenografted with BALB/c nude mouse assessed as increase in cleaved PARP1 positive tumor cells at 5 to 10 mg/kg, ip administered every 3 days upto 22 days by immuno histochemistry assay; assay type: functional, organism-based; details: dose 5-10 mg/kg, time <= 22.0 day
Sequestosome-1 [21] = biological target: T1, Sequestosome-1 (Homo sapiens, UniProt Q13501); assay: Binding affinity to P62 (unknown origin) by MST assay
T1 sequence (Q13501 whole entry, the tested form may be a part): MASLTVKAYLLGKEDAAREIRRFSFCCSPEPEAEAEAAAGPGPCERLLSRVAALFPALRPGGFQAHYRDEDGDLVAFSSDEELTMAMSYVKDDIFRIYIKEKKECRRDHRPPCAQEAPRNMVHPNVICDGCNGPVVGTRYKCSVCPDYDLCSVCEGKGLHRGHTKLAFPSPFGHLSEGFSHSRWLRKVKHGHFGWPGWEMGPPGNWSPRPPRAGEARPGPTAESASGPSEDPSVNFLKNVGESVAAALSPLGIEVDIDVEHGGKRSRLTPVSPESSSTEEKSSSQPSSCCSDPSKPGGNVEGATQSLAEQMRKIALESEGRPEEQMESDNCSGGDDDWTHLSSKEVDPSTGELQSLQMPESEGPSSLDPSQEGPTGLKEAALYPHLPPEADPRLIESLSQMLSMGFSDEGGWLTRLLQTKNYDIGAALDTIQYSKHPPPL

Sequestosome-1 [22] = biological target: T1, Sequestosome-1; assay: Binding affinity to N-terminal P62 LB domain (unknown origin) expressed in HEK293T cells; assay type: cell-based; details: filed as activator
[23] = biological target: T2, Androgen receptor (Homo sapiens) (UniProt P10275); assay: Inhibition of AR (unknown origin) at 10 uM
T2 sequence (whole entry): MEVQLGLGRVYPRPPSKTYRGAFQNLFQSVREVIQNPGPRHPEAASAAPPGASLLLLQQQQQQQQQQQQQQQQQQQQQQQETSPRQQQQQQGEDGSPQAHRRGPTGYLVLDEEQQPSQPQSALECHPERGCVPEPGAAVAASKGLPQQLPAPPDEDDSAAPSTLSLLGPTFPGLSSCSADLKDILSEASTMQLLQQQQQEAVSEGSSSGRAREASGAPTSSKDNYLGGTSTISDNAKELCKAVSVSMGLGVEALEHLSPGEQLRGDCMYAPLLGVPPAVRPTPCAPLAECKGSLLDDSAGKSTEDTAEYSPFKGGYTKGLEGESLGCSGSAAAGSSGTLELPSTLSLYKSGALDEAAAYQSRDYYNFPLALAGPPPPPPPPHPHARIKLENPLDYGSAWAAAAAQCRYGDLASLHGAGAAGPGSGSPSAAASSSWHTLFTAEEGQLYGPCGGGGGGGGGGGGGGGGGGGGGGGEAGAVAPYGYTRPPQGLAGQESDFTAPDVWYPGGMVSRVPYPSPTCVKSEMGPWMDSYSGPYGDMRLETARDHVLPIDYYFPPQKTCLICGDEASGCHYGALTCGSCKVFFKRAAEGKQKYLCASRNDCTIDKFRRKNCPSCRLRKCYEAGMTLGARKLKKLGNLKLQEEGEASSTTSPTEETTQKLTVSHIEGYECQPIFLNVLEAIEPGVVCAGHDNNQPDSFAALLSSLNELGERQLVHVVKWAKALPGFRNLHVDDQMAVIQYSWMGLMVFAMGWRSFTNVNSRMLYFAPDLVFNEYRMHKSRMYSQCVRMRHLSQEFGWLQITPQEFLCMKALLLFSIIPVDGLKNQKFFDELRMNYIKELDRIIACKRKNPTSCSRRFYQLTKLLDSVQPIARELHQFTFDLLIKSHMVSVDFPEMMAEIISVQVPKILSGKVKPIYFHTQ

COc1cc(-n2cc(-c3ccc4nc(N)nc(N)c4c3)nn2)cc(OC)c1OC
IC50 (A549): 1180 nM | IC50 (HCT-116 [1]): 360 nM | IC50 (A-375): 1930 nM | IC50 (HeLa): 2480 nM | IC50 (MCF7): 2790 nM | IC50 (MDA-MB-231): 1170 nM | IC50 (MGC-803): 1880 nM | Activity (HCT-116 [2]): 52.1% | Activity (HCT-116 [3]): 50.82% | Activity (HCT-116 [4]): 21.51% | Activity (HCT-116 [5]): 29.33% | Activity (HCT-116 [6]): 35.34% | inhibition (U2OS): Dde | half-life [7]: 16.2 h | half-life [8]: 31 h | half-life [9]: 22.1 h | Cmax [10]: 39.9 ng/mL | clearance [11]: 327 mL/min/kg | clearance [12]: 276 mL/min/kg | half-life at 0.5 µM [13]: 7.17 h | Activity [14]: Toxic | Activity [15]: Toxic | Activity [16]: Non-Toxic | MTD [17]: 50 mg/kg | Activity [18]: Toxic | Activity [19]: Toxic | Activity (HCT-116 [20]): Active | Kd (Sequestosome-1 [21]): 1490 nM | Activity (Sequestosome-1 [22]): Active | inhibition [23]: Active
